Source: ChEMBL document CHEMBL3352066, “Pharmacological characterization of actin-binding (-)-doliculide” (Bioorg Med Chem, 2014)
Active and inactive are the calls of the source. The rule behind the calls is not given here.

How the values were obtained:
[1] = target: Actin, cytoplasmic 1 (Homo sapiens) (UniProt P60709); assay: Inhibition of actin organization in human MCF7 cells transfected with GFP-tagged human beta-actin assessed as reduction of g-actin monomers at 100 nM after 30 mins by FRAP method; type: cell-based
[2] = target: Actin, cytoplasmic 1 (Homo sapiens) (UniProt P60709); assay: Inhibition of actin organization in human MCF7 cells transfected with GFP-tagged human beta-actin assessed as formation of actin aggregates at 300 nM after 30 mins by FRAP method; type: cell-based
[3] = target: Actin, cytoplasmic 1 (Homo sapiens) (UniProt P60709); assay: Inhibition of actin organization in human MCF7 cells transfected with GFP-tagged human beta-actin assessed as reduction of actin stress fibers at 100 nM after 24 hrs by FRAP method; type: cell-based
[4] = target: Actin, cytoplasmic 1 (Homo sapiens) (UniProt P60709); assay: Inhibition of actin organization in human MDA-MB-231 cells transfected with GFP-tagged human beta-actin assessed as reduction of actin stress fibers at 100 nM after 24 hrs by FRAP method; type: cell-based
[5] = target: Actin, cytoplasmic 1 (Homo sapiens) (UniProt P60709); assay: Inhibition of actin organization in human MCF7 cells transfected with GFP-tagged human beta-actin assessed as formation of actin aggregates at 300 to 500 nM after 24 hrs by FRAP method; type: cell-based
[6] = target: Actin, cytoplasmic 1 (Homo sapiens) (UniProt P60709); assay: Inhibition of actin organization in human MDA-MB-231 cells transfected with GFP-tagged human beta-actin assessed as formation of actin aggregates at 300 to 500 nM after 24 hrs by FRAP method; type: cell-based
MCF7 [7] = assay: Antiproliferative activity against human MCF7 cells after 72 hrs by CellTiter-Blue assay; type: functional, cell-based
MDA-MB-231 [8] = assay: Antiproliferative activity against human MDA-MB-231 cells after 72 hrs by CellTiter-Blue assay; type: functional, cell-based
MDA-MB-231 [9] = assay: Antimigratory activity against human MDA-MB-231 cells up to 10 hrs; type: functional, cell-based
MCF7 [10] = assay: Induction of apoptosis in human MCF7 cells after 24 hrs using propidium iodide by flow cytometry; type: functional, cell-based
MDA-MB-231 [11] = assay: Induction of apoptosis in human MDA-MB-231 cells after 24 hrs using propidium iodide by flow cytometry; type: functional, cell-based
MCF7 [12] = assay: Induction of apoptosis in human MCF7 cells assessed as reduction of pro-caspase9 level after 48 hrs by Western blot analysis; type: functional, cell-based
MDA-MB-231 [13] = assay: Induction of apoptosis in human MDA-MB-231 cells assessed as reduction of pro-caspase9 level after 48 hrs by Western blot analysis; type: functional, cell-based
MCF7 [14] = assay: Induction of apoptosis in human MCF7 cells assessed as PARP cleavage after 48 hrs by Western blot analysis; type: functional, cell-based
MDA-MB-231 [15] = assay: Induction of apoptosis in human MDA-MB-231 cells assessed as PARP cleavage after 48 hrs by Western blot analysis; type: functional, cell-based

## CC(C)[C@@H]1C[C@H](O)[C@H](C)C[C@H](C)C[C@H](C)C(=O)NCC(=O)N(C)[C@H](Cc2ccc(O)c(I)c2)C(=O)O1
[1]
  inhibition: Active
[2]
  inhibition: Active
[3]
  inhibition: Active
[4]
  inhibition: Active
[5]
  inhibition: Active
[6]
  inhibition: Active
MCF7 [7]
  inhibition: Dose-dependent effect
MCF7 [7]; MCF7, 72 h
  IC50: 0.093 µM
MDA-MB-231 [8]
  inhibition: Dose-dependent effect
MDA-MB-231 [8]; MDA-MB-231, 72 h
  IC50: 0.077 µM
MDA-MB-231 [9]
  inhibition: Dose-dependent effect
MCF7 [10]
  Activity: Dose-dependent effect
MDA-MB-231 [11]
  Activity: Dose-dependent effect
MCF7 [12]
  Activity: Dose-dependent effect
MDA-MB-231 [13]
  Activity: Dose-dependent effect
MCF7 [14]
  Activity: Active
MDA-MB-231 [15]
  Activity: Active
